Laboratory results reported in PMC10683027, “Discovery of tert-Butyl Ester Based 6-Diazo-5-oxo-L-norleucine Prodrugs for Enhanced Metabolic Stability and Tumor Delivery” (Journal of Medicinal Chemistry, 2023).
In brackets after ≈: the same amount, converted by molar mass. Several values for one entry are separate records, joined by “and”; a condition that tells them apart may be missing. Equal values may be shown once. Entries after “also recorded” stand apart in the source; their conditions may differ.

Assays:
[1] = Stability of P11 in human GI microsomes; type: in vitro ADME; conditions: Figure 3A
[2] = test system: glutamine and FGAR in EL4 tumors; test: Tumor target engagement: glutamine and FGAR quantification; type: in vivo, C57BL/6/CES1–/– mice; conditions: P11 2.9 mg/kg SC
Method: Glutamine and FGAR were extracted from the tumor by protein precipitation. Per milligram of tissue, 5 μL of methanol containing 10 μmol/L deuterated N-acetyl aspartic acid and deuterated glutamate (internal standards) was added. Tissue samples were homogenized as described above and centrifuged (16000g, 5 min). Standard concentration curves of glutamine and FGAR in untreated plasma and tumor tissues were prepared (separately). For FGAR quantification, supernatants (2 μL) were injected and separated on an UltiMate 3000 UHPLC coupled to a Q Exactive Focus Orbitrap mass spectrometer. Samples were separated on an Agilent Eclipse Plus C18 RRHD (1.8 μm) 2.1 × 100 mm column. The mobile phase consisted of 8 mmol/L dimethylhexylamine (DMHA) + 0.005% formic acid in water, pH 9 (A), and 8 mmol/L DMHA in acetonitrile (B). […] Quantification was performed in full MS negative mode. Data were acquired and quantified with Xcalibur software.
Glutamine analysis took place on an Agilent 1290 UPLC coupled to an Agilent 6520 quadrupole time-of-flight mass spectrometer. Samples (2 μL) were injected and separated on a Waters Acquity UPLC BEH Amide 1.7 μm 2.1 × 100 mm HILIC column with a flow rate of 0.3 mL/min. The mobile phases consisted of A (water +0.1% formic acid) and B (acetonitrile + 0.1% formic acid). The mass spectrometer was run in positive ion mode. Standard curves for FGAR and glutamine were fitted using a blank subtraction method[47] to compensate for the presence of endogenous analyte levels in naïve matrixes.

[3] = Metabolic stability in mouse intestinal homogenate (GIh)
Method: (§2) Briefly, intestinal tissue was homogenized over ice via probe sonication with 1:9 tissue to potassium phosphate buffer (0.1 M) conditions. Prodrugs were spiked in plasma or tissue homogenate at 10 μM final concentration with 0.2% DMSO v/v and incubated in triplicate for 0 and 60 min time points. At each time point, 100 μL of the sample was precipitated with 300 μL of methanol containing internal standard (IS; losartan, 0.5 μM). Precipitated samples were vortexed (30 s) and centrifuged at 10000g for 10 min at 4 °C. After centrifugation, 100 μL of supernatant was aliquoted and submitted for analysis. Prodrug disappearance over time was monitored by liquid chromatography–mass spectrometry (LC–MS) through peak area ratios between the analyte and internal standard.
(§3) Chromatographic analysis was performed on a Dionex ultra-high-performance LC system coupled with a Q Exactive Focus Orbitrap mass spectrometer (Thermo Fisher Scientific Inc., Waltham, MA). Separation was achieved using an Agilent Eclipse Plus column (100 × 2.1 mm i.d.; maintained at 35 °C) packed with a 1.8 μm C18 stationary phase. The mobile phase used was composed of 0.1% formic acid in acetonitrile and 0.1% formic acid in water with gradient elution, starting with 2.5% organic phase (from 0 to 0.25 min) and linearly increasing to 99% (from 0.25 to 1.25 min) and re-equilibrating to 2.5% by 4 min. The total run time for each analyte was 5 min. Pumps were operated at a flow rate of 0.4 mL/min. The mass spectrometer controlled by Xcalibur software 4.0.27.13 (Thermo Scientific) was operated with an HESI ion source in positive ionization mode for all compounds. Compounds were identified in the full-scan mode with m/z ranging from 75 to 1125.

[4] = test system: P493B lymphoma cells suspended in human plasma; test: Human tumor cell to plasma partitioning assay; type: cell-based; conditions: 20 μM; 1 h; human plasma fraction
Method: Human tumor cell to plasma partitioning assays were conducted as we have previously described.[25] Briefly, P493B lymphoma cells were grown at 37 °C, in a humidified atmosphere with 5% CO2. Cell confluency was estimated, and cells were harvested after achieving >80% confluency and centrifuged at 200g for 5 min at 25 °C. The obtained cell pellet was resuspended in 20 mL of Dulbecco’s phosphate-buffered saline (DPBS; Gibco, USA, cat. no. 14-190-144) maintained at 37 °C, and cell count was determined using an automated cell counter (Bio-Rad, USA). Cell suspension in DPBS was further centrifuged at 200g for 5 min at 25 °C, and the cell pellet was resuspended in human plasma (Innovative Research, USA) for partitioning assessment. The final cell density after resuspending in plasma was 10 million cells/mL of plasma. Partitioning assessment was performed in triplicate. Preincubated (37 °C for 5 min) cell–plasma suspension was spiked with DRP-104 or P11 at a final concentration of 20 μM and incubated at 37 °C for 1 h. Following incubation, a 1 mL aliquot of cell–plasma suspension was centrifuged at 1000g for 5 min at 4 °C, and supernatant plasma as well as the cell pellet was collected and stored at −80 °C until bioanalysis. Both plasma and cell pellet fractions were analyzed for intact prodrug and DON levels. […]

[5] = Stability of P11 in human plasma; type: in vitro ADME; conditions: Figure 3A
Method: as §2

[6] = Metabolic stability in mouse plasma
Method: as §2, §3

[7] = Aqueous solubility assay in PBS buffer (pH 7.4); type: physicochemical
Method: (§1) The aqueous solubility was determined as previously reported with minor modifications.[48] Briefly, an excess amount of P11 or DRP-104 was added to PBS buffer (pH 7.4) and sonicated for 1 h at 37 °C to ensure saturation. After 1 h, the solution was filtered (0.45 μm PTFE), and the filtrate was diluted appropriately, and the concentration of each analyte was determined via LC–MS. Chemical stabilities of DRP-104 and P11 were done as previously described[18] with modifications. For chemical stability, prodrugs were spiked (10 μM) in buffer at pH 7.4 and incubated at 37 °C for 24 h. Prodrug disappearance was monitored using the developed HRMS methods.

[8] = Chemical (aqueous) stability in buffer pH 7.4; type: physicochemical; conditions: 10 μM; pH 7.4 PBS; 37 °C; 24 h; HRMS/LCMS
Method: as §1

[9] = supplementary CSV, unit not given, matches Table 1 % remaining at 1 h, in %

CN(C)CC(=O)N[C@@H](Cc1ccccc1)C(=O)N[C@@H](CCC(=O)C=[N+]=[N-])C(=O)OC(C)(C)C [Prodrug P11, tert-Butyl (S)-6-Diazo-2-((S)-2-(2-(dimethylamino)acetamido)-3-phenylpropanamido)-5-oxohexanoate]
stability in human GI microsomes [1]: confirmed | fold increase in tumor FGAR compared with vehicle ([2]; 30 min): 150 | fold rise in tumor glutamine compared with vehicle ([2]; 30 min): ~2 | tumor FGAR level ([2]; 30 min post dose (Tmax)): 1040 ± 179 nmol/g | tumor glutamine level ([2]; 30 min post dose (Tmax)): 1710 ± 173 nmol/g | remaining at 1 h, 10 µM ([3]; CES1–/–, mouse, intestinal homogenate): 78 ± 2% | Intestinal homogenate [3, 9]: 78 ± 2 | stability and DON release in human plasma [4]: stable in human plasma with no DON release | stability in human plasma [5]: confirmed | remaining at 1 h, 10 µM ([6]; CES1–/–, mouse, plasma): 93 ± 1% | Plasma [6, 9]: 93 ± 1 | solubility at 1 h ([7]; PBS buffer pH 7.4, 37 °C, 1 h): 8100 ± 1100 µg/mL (≈ 17.6 mM) | fold solubility improvement compared to DRP-104 ([7]; buffer pH 7.4): 33 and > 30 | chemical stability in buffer [8]: remained intact without any degradation; also recorded: no degradation
